In EP2801357A1, “Carboxylated stilbenes for activating AMPK and sirtuins” (IMD Natural Solutions GmbH, priority 2013, dated 2014):
Read-outs that look alike come from different tables or passages of the source. Values belong to the molecule of their own block, whether it stands above or below them.

What was measured:
human sirtuin-1 (Sirt1) = target: T1, human sirtuin-1 (Sirt1) (Homo sapiens, UniProt Q96EB6); test: SIRT1 Fluorimetric Drug Discovery Kit, Sirt1 activation; type: biochemical; settings: for Fold increase in sirt1 activity versus control: Example 1(a), 10 µM, trans-resveratrol as control (1.0); for remaining activity at 0.3 µM / remaining activity at 1 µM / remaining activity at 3 µM / remaining activity at 10 µM / remaining activity at 30 µM: read-out: Activity [% control]
T1 construct: purchased BioMol, Hamburg, Germany
T1 sequence (Q96EB6 1-747): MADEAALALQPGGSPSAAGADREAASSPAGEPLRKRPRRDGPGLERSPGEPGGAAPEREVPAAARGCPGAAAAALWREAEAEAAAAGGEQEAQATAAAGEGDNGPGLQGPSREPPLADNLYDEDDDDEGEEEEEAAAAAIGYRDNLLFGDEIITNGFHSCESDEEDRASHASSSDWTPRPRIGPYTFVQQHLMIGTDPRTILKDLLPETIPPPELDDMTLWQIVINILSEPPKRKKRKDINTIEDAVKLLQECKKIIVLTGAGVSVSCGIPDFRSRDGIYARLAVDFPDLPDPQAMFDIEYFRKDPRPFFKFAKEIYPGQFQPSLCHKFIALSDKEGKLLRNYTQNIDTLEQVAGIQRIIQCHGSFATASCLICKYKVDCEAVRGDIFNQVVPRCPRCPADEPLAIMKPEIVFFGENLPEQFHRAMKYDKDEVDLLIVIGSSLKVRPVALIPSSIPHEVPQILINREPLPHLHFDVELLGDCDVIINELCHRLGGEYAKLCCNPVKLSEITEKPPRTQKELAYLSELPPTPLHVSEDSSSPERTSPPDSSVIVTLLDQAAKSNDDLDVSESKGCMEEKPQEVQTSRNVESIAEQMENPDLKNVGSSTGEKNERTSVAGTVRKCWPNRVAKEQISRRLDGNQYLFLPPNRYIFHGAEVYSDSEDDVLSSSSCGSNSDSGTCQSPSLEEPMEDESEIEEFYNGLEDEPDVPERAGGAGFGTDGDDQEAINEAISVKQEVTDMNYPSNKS
Procedure: Compounds were tested for Sirt1 activation using the SIRT1 Fluorimetric Drug Discovery Kit (BioMol, Hamburg, Germany), Testing was carried out in duplicate following the manufacturer's instructions. Assay medium: 50mM Tris-HCl pH 8.0, 137 mM NaCl, 2.7 mM KCI, 1 mM MgCl2, 1 mg/ml bovine serum albumin (BSA). Stock solutions of the test compounds (10 mM in DMSO) were used, yielding a final concentration of 10 µM in the assay plate. Readout was obtained by measuring the fluorescence in a microtiter plate reader (excitation: 380 nm; detection: 440 nm).
The agonistic effect on Sirt1 was determined at different concentrations. For this purpose, the test compound stock solutions were diluted to yield concentrations of 0.3, 1, 3, 10 and 30 µM, respectively, in the assay, which was performed as described above. The compound of structure (I-1) was selected for this experiment.
The selectivity of the agonistic effect of the compound of formula (I-1) on different sirtuin isoforms was investigated. For this purpose, in vitro testing was performed as described in Example 1 using the respective SIRT1 Fluorimetric Drug Discovery Kit, SIRT2 Fluorimetric Drug Discovery Kit, and SIRT3 Fluorimetric Drug Discovery Kit (each from BioMol, Hamburg, Germany). […] The dose-response effect is slightly lesser on Sirt3. Table 3: Activity on Sirt1

Sirt2 = target: T2, Sirt2 (Homo sapiens, UniProt Q8IXJ6); test: SIRT2 Fluorimetric Drug Discovery Kit, Sirt2 activation; type: biochemical; settings: Example 2, Table 6, Sirt2
T2 construct: purchased BioMol, Hamburg, Germany
T2 sequence (Q8IXJ6 1-389): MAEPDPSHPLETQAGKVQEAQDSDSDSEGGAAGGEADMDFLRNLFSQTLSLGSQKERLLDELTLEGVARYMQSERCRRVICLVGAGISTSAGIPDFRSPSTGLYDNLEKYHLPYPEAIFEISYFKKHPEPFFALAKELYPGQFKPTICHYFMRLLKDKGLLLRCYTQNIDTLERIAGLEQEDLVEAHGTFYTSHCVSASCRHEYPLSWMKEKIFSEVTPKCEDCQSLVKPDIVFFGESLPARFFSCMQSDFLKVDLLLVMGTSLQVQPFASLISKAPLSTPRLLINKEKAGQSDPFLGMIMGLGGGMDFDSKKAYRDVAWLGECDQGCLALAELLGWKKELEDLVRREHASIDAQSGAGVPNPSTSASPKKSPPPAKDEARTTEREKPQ

[1] = tested on: 5'-AMP-activated protein kinase (AMPK); test: Western blot analysis of AMPK phosphorylation in NHEK; type: cell-based, human; settings: for AMPK phosphorylation [% Control] / P-AMPK / Ratio P-AMPK/ GAPDH: 48 h;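 as to P-AMPK: Chemiluminescence band density of P-AMPK measured with Multigauge software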
[2] = tested on: normal human epidermal keratinocytes (NHEK); test: MTT reduction assay, cytotoxicity in NHEK; type: cell-based; settings: for viability: NHEK, MTT
Procedure: Culture conditions: 37 °C, 5 % CO2. Culture medium: Keratinocyte-SFM (serum-free medium) containing human recombinant epidermal growth factor (EGF 1-53) 0.25 ng/mL and bovine pituitary extract 25 µg/mL (Gibco; Cat. No. 17005-075), supplemented with gentamycin 25 µg/mL. Assay medium: Keratinocyte-SFM (Gibco; Cat. No. 10744-019), supplemented with gentamycin 25 µg/mL.
NHEK were seeded in 24-well plates (30.000 cells / well) and cultured in culture medium for 24 h and then in assay medium for another 24 h. Medium was then removed and replaced by assay medium containing the respective test compound or reference in defined concentrations.
Cytotoxicity was determined using the 3-(4,5-dimethylthiazol-2-yl)-2,5-diphenyltetrazoliumbromid (MTT) reduction assay (sse T. Mosmann (1983) J. Immunol. Methods. 65, pp. 55-63).

[3] = Experiment 1, Membrane 2, 300 µM
[4] = Experiment 1, Membrane 1, 1000 µM

SMILES: COc1cc(/C=C/c2cccc(O)c2C(=O)O)cc(OC)c1O [(I-4)]
Fold increase in sirt1 activity versus control (human sirtuin-1 (Sirt1)): 2.0

SMILES: Oc1ccc(/C=C/c2cc(O)cc(O)c2)cc1 [trans-resveratrol]
EC300 (Sirt2): >30 µM
remaining activity at 0.3 µM (human sirtuin-1 (Sirt1); Example 1(b), Table 2, 0.3 µM): 104%
remaining activity at 1 µM (human sirtuin-1 (Sirt1); Example 1(b), Table 2, 1.0 µM): 101%
remaining activity at 3 µM (human sirtuin-1 (Sirt1); Example 1(b), Table 2, 3.0 µM): 100%
remaining activity at 10 µM (human sirtuin-1 (Sirt1); Example 1(b), Table 2, 10.0 µM): 108%
remaining activity at 30 µM (human sirtuin-1 (Sirt1); Example 1(b), Table 2, 30.0 µM): 120%
EC300 (human sirtuin-1 (Sirt1); Example 1(b), concentration that gave 3-times the basal response of the enzyme): > 30 µM
remaining activity at 0.3 µM (human sirtuin-1 (Sirt1); Example 2, Table 3, 0.3 µM): 121%
remaining activity at 1 µM (human sirtuin-1 (Sirt1); Example 2, Table 3, 1.0 µM): 100%
remaining activity at 3 µM (human sirtuin-1 (Sirt1); Example 2, Table 3, 3.0 µM): 117%
remaining activity at 10 µM (human sirtuin-1 (Sirt1); Example 2, Table 3, 10.0 µM): 111%
remaining activity at 30 µM (human sirtuin-1 (Sirt1); Example 2, Table 3, 30.0 µM): 145%
EC300 (human sirtuin-1 (Sirt1); Example 2, Table 6, Sirt1): >30 µM
AMPK phosphorylation [% Control] [1, 3]: 722 % Control
P-AMPK [1, 3]: 1616 AU/mm^2
AMPK phosphorylation [% Control] ([1]; Experiment 2, 10 µM): 81 % Control
P-AMPK ([1]; Experiment 2, 10 µM): 228626 AU/mm^2
AMPK phosphorylation [% Control] ([1]; Experiment 2, 30 µM): 86 % Control
P-AMPK ([1]; Experiment 2, 30 µM): 211794 AU/mm^2
AMPK phosphorylation [% Control] ([1]; Experiment 2, 100 µM): 117 % Control
P-AMPK ([1]; Experiment 2, 100 µM): 327757 AU/mm^2
AMPK phosphorylation [% Control] ([1]; Experiment 2, 200 µM): 816 % Control
P-AMPK ([1]; Experiment 2, 200 µM): 2361575 AU/mm^2
AMPK phosphorylation [% Control] ([1]; Experiment 2, 300 µM): 21 % Control
P-AMPK ([1]; Experiment 2, 300 µM): 69290 AU/mm^2
dosage needed for similar enhancement of AMPK phosphorylation ([1]; effect similar to compound (I-1) at 30 µM): at least 200 µM
viability ([2]; 100 µM): 2%
viability ([2]; 300 µM): 43%
concentrations with cytotoxic effects on NHEK ([2]; under assay conditions): ≥ 100 µM

SMILES: NC(=O)c1ncn([C@@H]2O[C@H](CO)[C@@H](O)[C@H]2O)c1N [AICAR, 5-Amino-1-ß-D-ribofuranosyl-imidazole-4-carboxamide]
AMPK phosphorylation [% Control] [1, 4]: 482 % Control
P-AMPK [1, 4]: 1060 AU/mm^2
Ratio P-AMPK/ GAPDH [1, 4]: 2.05
AMPK phosphorylation [% Control] ([1]; Experiment 2, 1000 µM): 506 % Control
P-AMPK ([1]; Experiment 2, 1000 µM): 1377449 AU/mm^2
Ratio P-AMPK/ GAPDH ([1]; Experiment 2, 1000 µM): 0.572

Next, values leading:

Fold increase in sirt1 activity versus control (human sirtuin-1 (Sirt1)): 4.8
SMILES: O=C(O)c1c(O)cccc1/C=C/c1ccc(O)cc1 [(I-2)]

Fold increase in sirt1 activity versus control (human sirtuin-1 (Sirt1)): 2.7
SMILES: CC(=O)c1c(O)cccc1/C=C/c1ccc(OC2OC(CO)C(O)C(O)C2O)cc1 (stereo not drawn) [(I-5)]

Fold increase in sirt1 activity versus control (human sirtuin-1 (Sirt1)): 1.1
SMILES: COC(=O)c1c(/C=C/c2ccc(OC)cc2)cccc1OC [(I-3)]
